Assays:
AMBEL [1] = experiment: Postemergence herbicidal evaluation; type: in vivo
GLXMA [2] = experiment: Preemergence herbicidal evaluation; type: in vivo
Soybean, Glycine max = experiment: Preemergence herbicidal evaluation, GLXMA; type: in vivo, (L.) Merr.; settings: 0.2500 kg/ha
Excerpt: Results of herbicide evaluation are expressed on a rating scale (0-9). The scale is based upon a visual observation of plant stand, vigor, malformation, size, chlorosis and overall plant appearance as compared with a control.
The preemergence herbicidal activity of the test compounds of the present invention is exemplified by the following tests in which the seeds of a variety of monocotyledonous and dicotyledonous plants are separately mixed with potting soil and planted on top of approximately one inch of soil in separate pint cups. After planting, the cups are sprayed with the selected aqueous acetone solution containing test compound in sufficient quantity to provide the equivalent of about 0.0156 to 0.500 kg per hectare of test compound per cup. The treated cups are then placed on greenhouse benches, watered and cared for in accordance with conventional greenhouse procedures. From four to five weeks after treatment, the tests are terminated and each cup is examined and rated according to the rating system provided in Example 185.
The compounds evaluated are reported by compound number given in Example 185.

AMBEL [3] = experiment: Preemergence herbicidal evaluation; type: in vivo; parameters: scale not given here
ECHCG = experiment: Preemergence herbicidal evaluation; type: in vivo; parameters: scale not given here
ZEAMX = experiment: Preemergence herbicidal evaluation; type: in vivo; parameters: scale not given here
CHEAL [4] = experiment: Preemergence herbicidal evaluation; type: in vivo; parameters: scale not given here
TRZAWR [5] = experiment: Preemergence herbicidal evaluation; type: in vivo; parameters: scale not given here
IPOSS [6] = experiment: Preemergence herbicidal evaluation; type: in vivo; parameters: scale not given here
ABUTH = experiment: Preemergence herbicidal evaluation; type: in vivo; parameters: scale not given here
CASOB = experiment: Preemergence herbicidal evaluation; type: in vivo; parameters: scale not given here
SETVI [7] = experiment: Preemergence herbicidal evaluation; type: in vivo; parameters: scale not given here
GALAP = experiment: Preemergence herbicidal evaluation; type: in vivo; parameters: scale not given here
TRZAWR [8] = experiment: Postemergence herbicidal evaluation; type: in vivo
GLXMA [9] = experiment: Postemergence herbicidal evaluation; type: in vivo
IPOSS [10] = experiment: Postemergence herbicidal evaluation; type: in vivo
ORYSAT = experiment: Postemergence herbicidal evaluation; type: in vivo, Oryza sativa
SETVI [11] = experiment: Postemergence herbicidal evaluation; type: in vivo
CHEAL [12] = experiment: Postemergence herbicidal evaluation; type: in vivo
[13] = system: Soybean, Williams, Glycine max; experiment: Preemergence herbicidal evaluation, GLXMAW; type: in vivo, (L.) Merr. cv Williams; settings: 0.2500 kg/ha
Method in brief: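 Seeds mixed with potting soil were planted on about one inch of soil in cups, then sprayed with test compound in aqueous acetone at about 0.0156 to 0.500 kg per hectare. Plants were grown under greenhouse conditions and rated visually 4–5 weeks after treatment on a 0–9 scale against a control.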

`Cn1c(C(F)(F)F)cc(=O)n(-c2ccc3snc(-c4ccccc4)c3c2)c1=O` [Compound 4, 1-Methyl-3-(3-phenyl-1,2-benzisothiazol-5-yl)-6-(trifluoromethyl)-2,4(1H,3H)-pyrimidinedione] was tested, and the herbicidal effect rating (AMBEL [1]; 0.0157-0.0160 kg/ha) was 9.0, the herbicidal effect rating (AMBEL [1]; 0.0313-0.0320 kg/ha) was 7.0 and the herbicidal effect rating (AMBEL [1]; 0.0625-0.0640 kg/ha) was 9.0. The herbicidal effect rating (AMBEL [1]; 0.1250 kg/ha) was 9.0, the herbicidal effect rating (AMBEL [1]; 0.2500 kg/ha) was 9.0 and the herbicidal effect rating (AMBEL [1]; 0.5000 kg/ha) was 9.0. The herbicidal effect rating (GLXMA [2]; 0.0313-0.0320 kg/ha) was 3.0, the herbicidal effect rating (GLXMA [2]; 0.0620-0.0630 kg/ha) was 9.0 and the herbicidal effect rating (GLXMA [2]; 0.1250 kg/ha) was 9.0. For the same compound, the herbicidal effect rating (GLXMA [2]; 0.2500 kg/ha) was 7.0, the herbicidal effect rating (GLXMA [2]; 0.5000 kg/ha) was 9.0 and the “herbicide rating (0-9)” value (Soybean, Glycine max) was 7.0. The herbicidal effect rating (AMBEL [3]; 0.0313-0.0320 kg/ha) was 7.0, the herbicidal effect rating (AMBEL [3]; 0.0620-0.0630 kg/ha) was 7.0 and the herbicidal effect rating (AMBEL [3]; 0.1250 kg/ha) was 9.0. It also gave a herbicidal effect rating (AMBEL [3]; 0.2500 kg/ha) of 9.0, a herbicidal effect rating (AMBEL [3]; 0.5000 kg/ha) of 9.0 and a herbicidal effect rating (ECHCG; 0.0313-0.0320 kg/ha) of 9.0. The herbicidal effect rating (ECHCG; 0.0620-0.0630 kg/ha) was 9.0, the herbicidal effect rating (ECHCG; 0.1250 kg/ha) was 9.0 and the herbicidal effect rating (ECHCG; 0.2500 kg/ha) was 9.0. It also gave a herbicidal effect rating (ECHCG; 0.5000 kg/ha) of 9.0, a herbicidal effect rating (ZEAMX; 0.0313-0.0320 kg/ha) of 3.0 and a herbicidal effect rating (ZEAMX; 0.0620-0.0630 kg/ha) of 7.0. For the same compound, the herbicidal effect rating (ZEAMX; 0.1250 kg/ha) was 7.0, the herbicidal effect rating (ZEAMX; 0.2500 kg/ha) was 7.0 and the herbicidal effect rating (ZEAMX; 0.5000 kg/ha) was 7.0. For the same compound, the herbicidal effect rating (CHEAL [4]; 0.0313-0.0320 kg/ha) was 9.0, the herbicidal effect rating (CHEAL [4]; 0.0620-0.0630 kg/ha) was 9.0 and the herbicidal effect rating (CHEAL [4]; 0.1250 kg/ha) was 9.0. It also gave a herbicidal effect rating (CHEAL [4]; 0.2500 kg/ha) of 9.0, a herbicidal effect rating (CHEAL [4]; 0.5000 kg/ha) of 9.0 and a herbicidal effect rating (TRZAWR [5]; 0.0313-0.0320 kg/ha) of 2.0. For the same compound, the herbicidal effect rating (TRZAWR [5]; 0.0620-0.0630 kg/ha) was 5.0, the herbicidal effect rating (TRZAWR [5]; 0.1250 kg/ha) was 7.0 and the herbicidal effect rating (TRZAWR [5]; 0.2500 kg/ha) was 7.0. The herbicidal effect rating (TRZAWR [5]; 0.5000 kg/ha) was 7.0, the herbicidal effect rating (IPOSS [6]; 0.0313-0.0320 kg/ha) was 2.0 and the herbicidal effect rating (IPOSS [6]; 0.0620-0.0630 kg/ha) was 4.0. It also gave a herbicidal effect rating (IPOSS [6]; 0.1250 kg/ha) of 7.0, a herbicidal effect rating (IPOSS [6]; 0.2500 kg/ha) of 9.0 and a herbicidal effect rating (IPOSS [6]; 0.5000 kg/ha) of 9.0. It also gave a herbicidal effect rating (ABUTH; 0.0313-0.0320 kg/ha) of 9.0, a herbicidal effect rating (ABUTH; 0.0620-0.0630 kg/ha) of 9.0 and a herbicidal effect rating (ABUTH; 0.1250 kg/ha) of 9.0. The herbicidal effect rating (ABUTH; 0.2500 kg/ha) was 9.0, the herbicidal effect rating (ABUTH; 0.5000 kg/ha) was 9.0 and the herbicidal effect rating (CASOB; 0.0313-0.0320 kg/ha) was 7.0. The herbicidal effect rating (CASOB; 0.0620-0.0630 kg/ha) was 7.0, the herbicidal effect rating (CASOB; 0.1250 kg/ha) was 6.0 and the herbicidal effect rating (CASOB; 0.2500 kg/ha) was 9.0. The herbicidal effect rating (CASOB; 0.5000 kg/ha) was 9.0, the herbicidal effect rating (SETVI [7]; 0.0313-0.0320 kg/ha) was 9.0 and the herbicidal effect rating (SETVI [7]; 0.0620-0.0630 kg/ha) was 9.0. For the same compound, the herbicidal effect rating (SETVI [7]; 0.1250 kg/ha) was 9.0, the herbicidal effect rating (SETVI [7]; 0.2500 kg/ha) was 9.0 and the herbicidal effect rating (SETVI [7]; 0.5000 kg/ha) was 9.0. The herbicidal effect rating (GALAP; 0.0313-0.0320 kg/ha) was 9.0, the herbicidal effect rating (GALAP; 0.0620-0.0630 kg/ha) was 9.0 and the herbicidal effect rating (GALAP; 0.1250 kg/ha) was 6.0. It also gave a herbicidal effect rating (GALAP; 0.2500 kg/ha) of 9.0, a herbicidal effect rating (GALAP; 0.5000 kg/ha) of 9.0 and a herbicidal effect rating (TRZAWR [8]; 0.0157-0.0160 kg/ha) of 2.0. It also gave a herbicidal effect rating (TRZAWR [8]; 0.0313-0.0320 kg/ha) of 2.0, a herbicidal effect rating (TRZAWR [8]; 0.0625-0.0640 kg/ha) of 3.0 and a herbicidal effect rating (TRZAWR [8]; 0.1250 kg/ha) of 3.0. It also gave a herbicidal effect rating (TRZAWR [8]; 0.2500 kg/ha) of 3.0, a herbicidal effect rating (TRZAWR [8]; 0.5000 kg/ha) of 4.0 and a herbicidal effect rating (GLXMA [9]; 0.0157-0.0160 kg/ha) of 6.0. For the same compound, the herbicidal effect rating (GLXMA [9]; 0.0313-0.0320 kg/ha) was 5.0, the herbicidal effect rating (GLXMA [9]; 0.0625-0.0640 kg/ha) was 4.0 and the herbicidal effect rating (GLXMA [9]; 0.1250 kg/ha) was 7.0. For the same compound, the herbicidal effect rating (GLXMA [9]; 0.2500 kg/ha) was 9.0, the herbicidal effect rating (GLXMA [9]; 0.5000 kg/ha) was 9.0 and the herbicidal effect rating (IPOSS [10]; 0.0313-0.0320 kg/ha) was 7.0. For the same compound, the herbicidal effect rating (IPOSS [10]; 0.0625-0.0640 kg/ha) was 9.0, the herbicidal effect rating (IPOSS [10]; 0.1250 kg/ha) was 9.0 and the herbicidal effect rating (IPOSS [10]; 0.2500 kg/ha) was 9.0. The herbicidal effect rating (IPOSS [10]; 0.5000 kg/ha) was 9.0, the herbicidal effect rating (ORYSAT; 0.0157-0.0160 kg/ha) was 2.0 and the herbicidal effect rating (ORYSAT; 0.0313-0.0320 kg/ha) was 2.0. The herbicidal effect rating (ORYSAT; 0.0625-0.0640 kg/ha) was 2.0, the herbicidal effect rating (ORYSAT; 0.1250 kg/ha) was 3.0 and the herbicidal effect rating (ORYSAT; 0.2500 kg/ha) was 3.0. The herbicidal effect rating (ORYSAT; 0.5000 kg/ha) was 4.0, the herbicidal effect rating (SETVI [11]; 0.0157-0.0160 kg/ha) was 8.0 and the herbicidal effect rating (SETVI [11]; 0.0313-0.0320 kg/ha) was 9.0. It also gave a herbicidal effect rating (SETVI [11]; 0.0625-0.0640 kg/ha) of 9.0, a herbicidal effect rating (SETVI [11]; 0.1250 kg/ha) of 9.0 and a herbicidal effect rating (SETVI [11]; 0.2500 kg/ha) of 9.0. It also gave a herbicidal effect rating (SETVI [11]; 0.5000 kg/ha) of 9.0, a herbicidal effect rating (CHEAL [12]; 0.0157-0.0160 kg/ha) of 9.0 and a herbicidal effect rating (CHEAL [12]; 0.0313-0.0320 kg/ha) of 9.0. The herbicidal effect rating (CHEAL [12]; 0.0625-0.0640 kg/ha) was 9.0, the herbicidal effect rating (CHEAL [12]; 0.1250 kg/ha) was 9.0 and the herbicidal effect rating (CHEAL [12]; 0.2500 kg/ha) was 9.0. For the same compound, the herbicidal effect rating (CHEAL [12]; 0.5000 kg/ha) was 9.0.

In the case of `COC(=O)C(C)Oc1ccc(C)cc1-c1nsc2ccc(-n3c(=O)cc(C(F)(F)F)n(C)c3=O)cc12` (centres unmarked) [Compound 3], the “herbicide rating (0-9)” value [13] is reported as 5.0 and the “herbicide rating (0-9)” value (Soybean, Glycine max) is reported as 4.0.

For `COC(=O)COc1ccc(C)cc1-c1nsc2ccc(-n3c(=O)cc(C(F)(F)F)n(C)c3=O)cc12` [Compound 2, Methyl {{2-{5-[3,6-dihydro-3-methyl-4-(trifluoromethyl) -2,6-dioxo-1(2H)-pyrimidinyl]-1,2-benzisothiazol-3-yl]-p-tolyl}oxy}acetate], the “herbicide rating (0-9)” value [13] was 8.5 and the “herbicide rating (0-9)” value (Soybean, Glycine max) was 7.0.
